Measured values from patent US10807994B2, “Heterocyclic compounds and uses thereof” (NUVATION BIO INC., priority 2017, dated 2020).

How the values were obtained:
WEE1 kinase enzyme = WEE1 kinase enzyme (Homo sapiens (Human), UniProt P30291); experiment: WEE1 IC50 determination, LanthaScreen Terbium labeled TR-FRET kinase assay; assay type: biochemical; settings: WEE1 enzyme 1 nM
Method: IC50 values of compounds against WEE1 kinase enzyme were determined by LanthaScreen™ Terbium Labeled TR-FRET assay. Kinase assays were performed in 1× kinase buffer (# PV6135, Invitrogen, Life Technologies Grand Island, N.Y.) where total reaction volume was 10 μl in low-volume 384-well plates (#4511, Corning). Serially diluted compounds (3-fold) were incubated with WEE1 Enzyme (1 nM) (# PR7373A, Invitrogen, Life Technologies Grand Island, N.Y.) for 10 min, following which a mixture of ATP […] (# A1852, Sigma, St-Louis, Mo.) and fluorescent-PolyGT substrate (200 nM) (# PV3610, Invitrogen, Life Technologies Grand Island, N.Y.) was added and incubated in dark at room temperature for 1 h. After 1 h, 10 μl stop solution containing Terbium labeled antibody (4 nM) (# PV3529, Invitrogen, Life Technologies Grand Island, N.Y.) and EDTA (# E5134, Sigma, St-Louis, Mo.) (20 mM) in TR-FRET dilution buffer (# PV3574, Invitrogen, Life Technologies Grand Island, N.Y.) was added. Readings were taken in a Synergy Neo Plate reader (BioTek, Winooski) at single excitation of 340 nm and Dual emission at 495 nm and 520 nm respectively.
The % activity of test samples was calculated as (Sample−Min)*100/(Max−Min). [Max: DMSO control, complete reaction with enzyme & DMSO and Min: No enzyme & DMSO]. Percent inhibition (100-% activity) was fitted to the “four-parameter logistic model” in XLfit for determination of IC50 values.

A427 cells = experiment: Cytotoxicity assay (resazurin), A427 cells, 72 hr; assay type: cell-based; settings: Homo sapiens, A-427, read-out: Cell Viability A427 IC50
Method: A549 (CCL-185; ATCC) and A427 (HTB-53; ATCC), both lung epithelial cell lines were seeded in their respective medium (DMEM/MEM, 10569044/41090101; Gibco) at a cell count of 1500 cells per 100 μL per well in a 96 well edge plate (167425; ThermoFisher). Cells were allowed to grow at 37° C. for 24 hr in 5% CO2 environment (culture conditions) in a Nuaire incubator (humidified). Serially diluted test compounds (100 μL) within the desired testing concentration ranges were added to the culture plate were further incubated in culture conditions for 72 hr and 96 hr for A427 and A549 respectively. The experiment was terminated at the designated incubation time by replacing the medium with 100 μL of 1 mM of resazurin (R7017; Sigma) prepared in respective culture medium, and the plates were further incubated in culture conditions for 4-6 hr. Fluorescence was recorded using a multimodal plate reader (Biotek Synergy Neo) at an excitation wavelength of 535 nm and emission wavelength of 590 nm to obtain relative fluorescence units. Data analysis was done by subtracting the background fluorescence (only medium blank) value from each reading and then normalizing with the vehicle control (DMSO treated cells) to obtain percent survival/proliferation. Percent survival was then subtracted by 100 to get the percent inhibition of proliferation which was used to calculate IC50 values. Potency of compounds in other cell lines (As-Pc-1, Panc-10.05, MDAMB231, A172) was determined in an analogous manner.

WEE1 kinase enzyme, sequence (P30291 whole entry): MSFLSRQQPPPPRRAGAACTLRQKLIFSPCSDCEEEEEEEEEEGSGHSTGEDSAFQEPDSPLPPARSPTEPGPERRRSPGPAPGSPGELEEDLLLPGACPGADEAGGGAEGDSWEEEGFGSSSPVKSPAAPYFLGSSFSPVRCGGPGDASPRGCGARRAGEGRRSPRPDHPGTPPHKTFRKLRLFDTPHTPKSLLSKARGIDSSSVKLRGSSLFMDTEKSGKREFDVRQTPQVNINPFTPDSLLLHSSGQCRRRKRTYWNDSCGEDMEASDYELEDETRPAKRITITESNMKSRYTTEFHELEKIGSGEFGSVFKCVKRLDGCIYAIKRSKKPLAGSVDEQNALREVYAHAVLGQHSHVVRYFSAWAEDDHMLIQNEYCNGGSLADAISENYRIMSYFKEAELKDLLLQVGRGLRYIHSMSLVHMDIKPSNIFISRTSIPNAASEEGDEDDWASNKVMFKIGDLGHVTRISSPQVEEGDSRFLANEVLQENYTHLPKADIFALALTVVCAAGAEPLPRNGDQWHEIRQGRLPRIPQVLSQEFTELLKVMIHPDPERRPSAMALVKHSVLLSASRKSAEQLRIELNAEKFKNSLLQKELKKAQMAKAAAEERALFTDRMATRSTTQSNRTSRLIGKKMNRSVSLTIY

| SMILES | IC50 (WEE1 kinase enzyme) | IC50 (A427 cells) |
| --- | --- | --- |
| O=C1c2cnc(Nc3ccc(N4CCOCC4)cc3)nc2OCN1c1c(Cl)cccc1Cl [Example 1.2] | 3.26 µM | – |
| CC(C)(O)C(=O)N1Cc2cc(Nc3ncc4c(n3)OCN(c3c(Cl)cccc3Cl)C4=O)ccc2C(C)(C)C1 [Example 1.6] | 0.279 µM | – |
| O=C1c2cnc(Nc3ccc(N4CCNCC4)cc3)nc2OCN1c1ccccc1Cl [Example 1.9] | 0.193 µM | – |
| CN1CCN(c2ccc(Nc3ncc4c(n3)OCN(c3ccc(F)cc3Cl)C4=O)cc2)CC1 [Example 1.11] | 0.837 µM | – |
| CCS(=O)(=O)N1CCN(c2ccc(Nc3ncc4c(n3)OCN(c3c(Cl)cccc3Cl)C4=O)cc2)CC1 [Example 1.15] | 1.56 µM | – |
| CC(C)N1CCN(c2ccc(Nc3ncc4c(n3)OCN(c3c(Cl)cccc3Cl)C4=O)cc2)CC1 [Example 1.19] | 0.206 µM | – |
| O=C1c2cnc(Nc3ccc(N4CCN(C5CC5)CC4)cc3)nc2OCN1c1c(Cl)cccc1Cl [Example 1.21] | 1.39 µM | – |
| O=C1NCCc2ccc(Nc3ncc4c(n3)OCN(c3c(Cl)cccc3Cl)C4=O)cc21 [Example 1.23] | 0.607 µM | – |
| CN1CCN(c2ccc(Nc3ccc4c(n3)OCN(c3c(Cl)cccc3Cl)C4=O)cc2)CC1 [Example 1.31, 3-(2,6-dichlorophenyl)-7-(4-(4-methylpiperazin-1-yl)phenylamino)-2H-pyrido[3,2-e][1,3]oxazin-4(3H)-one] | 30 µM | – |
| CC1CCN(c2ccc(Nc3ncc4c(n3)OCN(c3c(Cl)cccc3Cl)C4=O)cc2)CC1 [Example 1.59, 3-(2,6-dichlorophenyl)-7-(4-(4-methylpiperidin-1-yl)phenylamino)-2H-pyrimido[5,4-e][1,3]oxazin-4(3H)-one] | > 5 µM | 14 µM |
| O=C1c2cnc(Nc3ccc(N4CCC(F)(F)CC4)cc3)nc2OCN1c1c(Cl)cccc1Cl [Example 1.63] | > 5 µM | – |
| O=C1c2cnc(Nc3ccc4cnccc4c3)nc2OCN1c1c(Cl)cccc1Cl [Example 1.64] | > 5 µM | – |
| O=C1c2cnc(Nc3ccc4c(c3)CN(CC(F)F)CC4)nc2OCN1c1c(Cl)cccc1Cl [Example 1.65] | 1.33 µM | – |
| O=C1c2cnc(Nc3ccc4[nH]ncc4c3)nc2OCN1c1c(Cl)cccc1Cl [Example 1.87] | 0.777 µM | 25.4 µM |
| CN(c1ccc(N2CCNCC2)cc1)c1ncc2c(n1)OCN(c1c(Cl)cccc1Cl)C2=O [Example 1.104] | > 5 µM | 27.8 µM |
| O=C1c2cnc(Nc3ccc4c(c3)NCCC4)nc2OCN1c1c(Cl)cccc1Cl [Example 1.121] | 0.501 µM | 7.33 µM |
| O=C1c2cnc(Nc3ccc4c(c3)CCCN4)nc2OCN1c1c(Cl)cccc1Cl [Example 1.224] | 0.232 µM | 12.1 µM |
| CCN(CC)CCOc1ccc(Nc2ncc3c(n2)OCN(c2c(Cl)cccc2Cl)C3=O)cc1 [Example 1.225] | 0.282 µM | 2.16 µM |
| CN1CCN(c2ccc(Nc3ncc4c(n3)SCN(c3c(Cl)cccc3Cl)C4=O)cc2)CC1 [Example 1.230] | 0.561 µM | 4.94 µM |
| CN(C)C1CCN(c2ccc(Nc3ncc4c(n3)SCN(c3c(Cl)cccc3Cl)C4=O)cc2)CC1 [Example 1.232] | 0.273 µM | 1.12 µM |
| O=C1c2cnc(Nc3ccc4c(c3)CCNC4)nc2SCN1c1c(Cl)cccc1Cl [Example 1.234] | 0.202 µM | 4.84 µM |
| O=C1c2cnc(Nc3ccc(N4CCNCC4)c(Cl)c3)nc2SCN1c1c(Cl)cccc1Cl [Example 1.236] | 0.335 µM | 1.77 µM |
| CN(C)C1CCN(c2ccc(Nc3ncc4c(n3)SCN(c3c(Cl)cccc3Cl)C4=O)cc2C#N)CC1 [Example 1.239] | 0.508 µM | 0.765 µM |
| CN(C)C1CCN(c2ccc(Nc3ncc4c(n3)SCN(c3c(Cl)cccc3Cl)C4=O)cc2Cl)CC1 [Example 1.240] | 0.303 µM | 1.64 µM |
| C[C@@H]1CN(c2ccc(Nc3ncc4c(n3)OCN(c3c(Cl)cccc3Cl)C4=O)cc2Cl)CCN1 [Example 1.919] | 0.34 µM | – |

Second part, led by results:

| IC50 (WEE1 kinase enzyme) | SMILES | IC50 (A427 cells) |
| --- | --- | --- |
| 0.074 µM | O=C(CO)N1CCc2ccc(Nc3ncc4c(n3)OCN(c3c(Cl)cccc3Cl)C4=O)cc2C1 [Example 1.7] | – |
| 0.162 µM | O=C(CO)N1CCN(c2ccc(Nc3ncc4c(n3)OCN(c3c(Cl)cccc3Cl)C4=O)cc2)CC1 [Example 1.8] | – |
| 0.144 µM | O=C1c2cnc(Nc3ccc(N4CCNCC4CO)cc3)nc2OCN1c1c(Cl)cccc1Cl (centres unmarked) [Example 1.13] | – |
| 0.173 µM | CC1(C)CNCc2cc(Nc3ncc4c(n3)OCN(c3ccc(F)cc3Cl)C4=O)ccc21 [Example 1.14] | – |
| 0.156 µM | CC1Oc2nc(Nc3ccc(N4CCNCC4)cc3)ncc2C(=O)N1c1c(Cl)cccc1Cl (centres unmarked) [Example 1.17] | – |
| 0.192 µM | CCN1CCN(c2ccc(Nc3ncc4c(n3)OCN(c3c(Cl)cccc3Cl)C4=O)cc2)CC1 [Example 1.18] | – |
| 0.03 µM | CCN1Cc2cc(Nc3ncc4c(n3)OCN(c3c(Cl)cccc3Cl)C4=O)ccc2C(C)(C)C1 [Example 1.22] | – |
| 0.068 µM | CN1CCN(c2ccc(Nc3ncc4c(n3)OCN(c3c(F)cccc3Cl)C4=O)cc2)CC1 [Example 1.25] | – |
| 0.088 µM | CC1CNCCN1c1ccc(Nc2ncc3c(n2)OCN(c2c(Cl)cccc2Cl)C3=O)cc1 (centres unmarked) [Example 1.26] | – |
| 0.035 µM | CC1(C)CNCc2cc(Nc3ncc4c(n3)OCN(c3c(F)cccc3Cl)C4=O)ccc21 [Example 1.28] | – |
| 0.11 µM | O=C1c2cnc(Nc3ccc(N4CCCNCC4)cc3)nc2OCN1c1c(Cl)cccc1Cl [Example 1.61] | 4.12 µM |
| 0.123 µM | CC1Oc2nc(Nc3ccc(N4CCNCC4)c(CO)c3)ncc2C(=O)N1c1c(Cl)cccc1Cl (centres unmarked) [Example 1.62] | 2.8 µM |
| 0.047 µM | O=C1c2cnc(Nc3ccc(N4CCNC(CO)C4)cc3)nc2OCN1c1c(Cl)cccc1Cl (centres unmarked) [Example 1.96] | 5.89 µM |
| 0.11 µM | CN(C)Cc1c[nH]c2cc(Nc3ncc4c(n3)OCN(c3c(Cl)cccc3Cl)C4=O)ccc12 [Example 1.107] | 7.7 µM |
| 0.066 µM | C[C@H]1CNCCN1c1ccc(Nc2ncc3c(n2)OCN(c2c(Cl)cccc2Cl)C3=O)cc1 [Example 1.172] | 4.9 µM |
| 0.087 µM | C[C@@H]1CN(c2ccc(Nc3ncc4c(n3)OCN(c3c(Cl)cccc3Cl)C4=O)cc2)CCN1 [Example 1.173] | 3.32 µM |
| 0.032 µM | C[C@@H]1CN(c2ccc(Nc3ncc4c(n3)OCN(c3c(Cl)cccc3Cl)C4=O)cc2F)CCN1 [Example 1.174] | 3.4 µM |
| 0.066 µM | O=C1c2cnc(Nc3ccc4[nH]ccc4c3)nc2OCN1c1c(Cl)cccc1Cl [Example 1.175] | 22 µM |
| 0.105 µM | Cc1cc(Nc2ncc3c(n2)OCN(c2c(Cl)cccc2Cl)C3=O)cc(C)c1N1CCNCC1 [Example 1.176] | 3.25 µM |
| 0.032 µM | CN(C)C1CCN(c2ccc(Nc3ncc4c(n3)OCN(c3c(Cl)cccc3Cl)C4=O)cc2)CC1 [Example 1.223] | 1.66 µM |
| 0.188 µM | O=C1c2cnc(Nc3ccc4c(c3)NCCN4)nc2OCN1c1c(Cl)cccc1Cl [Example 1.226] | 5.36 µM |
| 0.127 µM | CC1CN(c2ccc(Nc3ncc4c(n3)OCN(c3c(Cl)cccc3Cl)C4=O)cc2Cl)CCN1 (centres unmarked) [Example 1.228] | 1.46 µM |
| 0.185 µM | C[C@H]1CN(c2ccc(Nc3ncc4c(n3)OCN(c3c(Cl)cccc3Cl)C4=O)cc2Cl)CCN1 [Example 1.229] | 2.25 µM |
| 0.142 µM | CC1(C)CNCc2cc(Nc3ncc4c(n3)SCN(c3c(Cl)cccc3Cl)C4=O)ccc21 [Example 1.231] | 2.23 µM |
| 0.165 µM | O=C1c2cnc(Nc3ccc4c(c3)CNCC4)nc2SCN1c1c(Cl)cccc1Cl [Example 1.233] | 7.21 µM |
| 0.111 µM | Cc1cc(Nc2ncc3c(n2)SCN(c2c(Cl)cccc2Cl)C3=O)ccc1N1CCNCC1 [Example 1.235] | 2.9 µM |
| 0.045 µM | CC1(C)CNCc2cc(Nc3ncc4c(n3)SCN(c3c(F)cccc3Cl)C4=O)ccc21 [Example 1.238] | 5.29 µM |
| 0.095 µM | CN1Cc2cc(Nc3ncc4c(n3)SCN(c3c(Cl)cccc3Cl)C4=O)ccc2C(C)(C)C1 [Example 1.241] | 3.49 µM |
